Patent publication US9388142B2, “Quinazolinone derivatives as PARP inhibitors” (MERCK PATENT GMBH, priority 2012, dated 2016)
Where a name gives a salt, the structure may show the parent alone. Read-outs that look alike come from different tables or passages of the source.

Key:
[1] = biological target: T1, GST-tagged Tankyrase-1 (1023-1327 aa) (Homo sapiens, UniProt O95271); assay: biochemical
T1 construct: GST-tagged Tankyrase-1 (1023-1327 aa)
Excerpt: aq (aqueous), h (hour), g (gram), L (liter), mg (milligram), MHz (Megahertz), min. (minute), mm (millimeter), mmol (millimole), mM (millimolar), m.p. (melting point), eq (equivalent), mL (milliliter), L (microliter), ACN (acetonitrile), AcOH (acetic acid), CDCl3 (deuterated chloroform), CD3OD (deuterated methanol), CH3CN (acetonitrile), c-hex (cyclohexane), DCC (dicyclohexyl carbodiimide), DCM (dichloromethane), DIC (diisopropyl carbodiimide), DIEA (diisopropylethyl-amine), DMF (dimethylformamide), DMSO (dimethylsulfoxide), DMSO-d6 (deuterated dimethylsulfoxide), EDC (1-(3-dimethyl-amino-propyl)-3-ethylcarbodiimide), ESI (Electro-spray ionization), EtOAc (ethyl acetate), Et2O (diethyl ether), EtOH (ethanol), HATU (dimethylamino-([1,2,3]triazolo[4,5-b]pyridin-3-yloxy)-methylene]-dimethylammonium hexafluorophosphate), HPLC (High Performance Liquid Chromatography), i-PrOH (2-propanol), K2CO3 (potassium carbonate), LC (Liquid Chromatography), MeOH (methanol), MgSO4 (magnesium sulfate), MS (mass spectrometry), MTBE (Methyl tert-butyl ether), NaHCO3 (sodium bicarbonate), NaBH4 (sodium borohydride), NMM (N-methyl morpholine), NMR (Nuclear Magnetic Resonance), PyBOP (benzotriazole-1-yl-oxy-trispyrrolidino-phosphonium hexafluorophosphate), RT (room temperature), Rt (retention time), SPE (solid phase extraction), TBTU (2-(1-H-benzotriazole-1-yl)-1,1,3,3-tetramethyluromium tetrafluoro borate), TEA (triethylamine), TFA (trifluoroacetic acid), THF (tetrahydrofuran), TLC (Thin Layer Chromatography), UV (Ultraviolet). Description of the In Vitro Assays Abbreviations: GST=Glutathione-S-transferase FRET=Fluorescence resonance energy transfer HTRF®=(homogenous time resolved fluorescence) HEPES=4-(2-hydroxyethyl)-1-piperazine ethanesulfonic acid buffer DTT=Dithiothreitol BSA=bovine serum albumin CHAPS=detergent; CHAPS=3[(3-cholamidopropyl)dimethylammonio]-1-propanesulfonate Streptavidin-XLent® is a high grade streptavidin-XL665 conjugate for which the coupling conditions have been optimized to yield a conjugate with enhanced performances for some assays, particularly those requiring high sensitivity.
(§1) The autoparsylation assay is run in two steps: the enzymatic reaction in which GST-tagged Tankyrase-1, resp Tankyrase-2 transferred biotinylated ADP-ribose to itself from biotinylated NAD as co-substrate and the detection reaction where a time resolved FRET between cryptate labelled anti-GST bound to the GST tag of the enzyme and Xlent® labelled-streptavidin bound the biotin-parsylation residue is analysed. The autoparsylation activity was detectable directly via the increase in HTRF signal.
The autoparsylation assay is performed as 384-well HTRF® (Cisbio, Codolet, France) assay format in Greiner low volume nb 384-well microtiter plates and is used for high throughput screen. […] The reaction is stopped by the addition of 1 μl 50 mM EDTA solution. […] The ratio of the emission signals is determined. The full value used is the inhibitor-free reaction. […] The inhibitory values (IC50) are determined using either the program Symyx Assay Explorer® or Condosseo® from GeneData.

His-tagged Parp-1 = biological target: T2, His-tagged Parp-1 (Homo sapiens, UniProt P09874); assay: PARP-1 autoparsylation assay (HTRF); format: biochemical
T2 construct: purchased Enzo Life Sciences GmbH, Lörrach, Germany
T2 sequence (P09874 whole entry): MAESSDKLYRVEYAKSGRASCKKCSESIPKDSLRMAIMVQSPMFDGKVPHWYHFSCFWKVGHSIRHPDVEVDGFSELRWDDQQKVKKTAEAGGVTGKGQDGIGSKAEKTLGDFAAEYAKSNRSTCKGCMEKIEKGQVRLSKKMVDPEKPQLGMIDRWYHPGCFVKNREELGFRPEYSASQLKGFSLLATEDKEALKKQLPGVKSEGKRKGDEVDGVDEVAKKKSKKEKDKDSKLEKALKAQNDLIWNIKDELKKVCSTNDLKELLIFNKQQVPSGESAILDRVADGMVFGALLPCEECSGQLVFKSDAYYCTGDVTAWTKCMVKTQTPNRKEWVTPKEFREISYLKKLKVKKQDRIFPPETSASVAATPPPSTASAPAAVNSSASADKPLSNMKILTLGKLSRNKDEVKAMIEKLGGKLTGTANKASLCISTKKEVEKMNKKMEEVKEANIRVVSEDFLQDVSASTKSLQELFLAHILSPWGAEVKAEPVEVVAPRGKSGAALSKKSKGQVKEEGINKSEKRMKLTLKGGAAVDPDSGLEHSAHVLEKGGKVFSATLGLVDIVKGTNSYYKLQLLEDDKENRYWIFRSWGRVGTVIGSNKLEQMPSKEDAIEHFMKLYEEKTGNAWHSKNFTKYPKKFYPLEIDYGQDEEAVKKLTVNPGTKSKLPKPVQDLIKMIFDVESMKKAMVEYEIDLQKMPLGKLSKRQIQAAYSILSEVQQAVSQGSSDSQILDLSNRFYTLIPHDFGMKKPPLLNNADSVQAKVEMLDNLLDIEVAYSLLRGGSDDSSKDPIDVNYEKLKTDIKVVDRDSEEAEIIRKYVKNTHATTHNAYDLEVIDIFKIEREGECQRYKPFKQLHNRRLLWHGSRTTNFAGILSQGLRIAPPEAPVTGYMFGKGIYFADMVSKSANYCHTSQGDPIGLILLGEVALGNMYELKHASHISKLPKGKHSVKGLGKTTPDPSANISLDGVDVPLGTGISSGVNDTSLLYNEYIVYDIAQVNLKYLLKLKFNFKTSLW
Excerpt: Description of the PARP1 Assay
Biochemical Activity Testing of PARP-1: Autoparsylation Assay
as §1, with “His-tagged Parp-1 transfers” for “GST-tagged Tankyrase-1, resp Tankyrase-2 transferred”, “ADP-ribose/ADP-ribose” for “ADP-ribose”, “NAD/NAD” for “NAD”, “anti-His antibody” for “anti-GST”, “His” for “GST”, “is” for “was”
The autoparsylation assay is performed as 384-well HTRF® (Cisbio, Codolet, France) assay format in Greiner low volume nb 384-well microtiter plates. 35 nM His-tagged Parp-1 (human, recombinant, Enzo Life Sciences GmbH, Lörrach, Germany) and a mixture of 125 nM bio-NAD (Biolog, Life science Inst., Bremen, Germany) and 800 nM NAD as co-substrate are incubated in a total volume of 6 μl (100 mM Tris/HCl, 4 mM Mg-chloride, 0.01% IGEPAL® CA630, 1 mM DTT, 0.5% DMSO, pH 8, 13 ng/μl activated DNA (BPS Bioscience, San Diego, US)) in the absence or presence of the test compound (10 dilution concentrations) for 150 min at 23° C. The reaction is stopped by the addition of 4 μl of the Stop/detection solution (70 nM SA-Xlent® (Cisbio, Codolet, France), 2.5 nM Anti-His-K® (Eu-labelled anti-His, Cisbio, Codolet, France) in 50 mM HEPES, 400 mM KF, 0.1% BSA, 20 mM EDTA, pH 7.0). After 1 h incubation at room temperature the HTRF iss measured with an Envision multimode reader (Perkin Elmer LAS Germany GmbH) at excitation wavelength 340 nm (laser mode) and emission wavelengths 615 nm and 665 nm. The ratio of the emission signals is determined. The full value used is the inhibitor-free reaction. The pharmacological zero value used is Olaparib (LClabs, Woburn, US) in a final concentration of 1 The inhibitory values (IC50) are determined using either the program Symyx Assay Explorer® or Condosseo® from GeneData.

[2] = biological target: T3, GST-tagged Tnks-1 (1023-1327 aa) (Homo sapiens, UniProt O95271); assay: TNKS1 activity ELISA (autoparsylation assay); format: biochemical; settings: read-out: IC50 TNKS1 ELISA
T3 construct: GST-tagged Tnks-1 (1023-1327 aa, prepared in-house); made in house
T3 sequence (O95271 1023-1327): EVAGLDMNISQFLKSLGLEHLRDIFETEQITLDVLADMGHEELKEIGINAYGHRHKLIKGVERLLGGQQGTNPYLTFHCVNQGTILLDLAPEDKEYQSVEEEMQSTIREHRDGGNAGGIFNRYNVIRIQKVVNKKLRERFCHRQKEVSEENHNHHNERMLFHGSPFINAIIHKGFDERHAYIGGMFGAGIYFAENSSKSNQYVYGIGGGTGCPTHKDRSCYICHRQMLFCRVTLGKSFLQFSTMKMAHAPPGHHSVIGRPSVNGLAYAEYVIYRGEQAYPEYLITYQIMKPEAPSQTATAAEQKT
Method: Description of the TNKS1 and TNKS2 ELISA Assay
Then the activity assay with biotinylated NAD is performed in the absence/presence of the compounds. During the enzymatic reaction GST tagged TNKS transfers biotinylated ADP-ribose to itself from biotinylated NAD as co-substrate. For the detection streptavidin-HRP conjugate is added that binds to the biotinylated TNKS and is thereby captured to the plates. The amount of biotinylated resp. autoparsylated TNKS is detected with a luminescence substrate for HRP. The level of the luminescence signal correlates directly with the amount of autoparsylated TNKS and therefore with activity of TNKS.
The activity ELISA is performed in 384 well Glutathione coated microtiter plates (Express capture Glutathione coated plate, Biocat, Heidelberg, Germany). The plates are pre-equilibrated with PBS. […] The plates are washed 3 times with PBS-Tween-20. The wells are blocked by incubation at room temperature for 20 minutes with 50 μl blocking buffer (PBS, 0.05% Tween-20, 0.5% BSA). Afterwards the plates are washed 3 times with PBS-Tween-20. […] The reaction is stopped by 3 times washing with PBS-Tween-20. For the detection 50 μl of 20 ng/μl Streptavidin, HRP conjugate (MoBiTec, Gottingen, Germany) in PBS/0.05% Tween-20/0.01% BSA are added and the plates are incubated for 30 minutes at room temperature. After three times washing with PBS-Tween-20 50 μl of SuperSignal ELISA Femto Maximum sensitivity substrate solution (ThermoFisherScientific (Pierce), Bonn, Germany) are added. Following a 1 minute incubation at room temperature luminescence signals are measured with an Envision multimode reader (Perkin Elmer LAS Germany GmbH) at 700 nm. The full value used is the inhibitor-free reaction. […] The inhibitory values (IC50) are determined using either the program Symyx Assay Explorer® or Condosseo® from GeneData.

[3] = read-out: IC50 tankyrase 1 (enzyme assay)

T1 sequence (O95271 1023-1327): as above

Compound | IC50 [1, 3] [nM] | IC50 (His-tagged Parp-1) [nM] | IC50 [2] [nM] | IC50 [1] [nM]
CC(C)(O)c1ccc(-c2nc3ccc(F)cc3c(=O)[nH]2)cc1 [Compound A1, 6-fluoro-2-[4-(1-hydroxy-1-methyl-ethyl)-phenyl]-3H-quinazolin-4-one] | < 300 | 300 to 3000 | < 300 | 
COc1cccc2c(=O)[nH]c(-c3ccc(C(C)(C)O)cc3)nc12 [Compound A2, 2-[4-(1-hydroxy-1-methyl-ethyl)-phenyl]-8-methoxy-3H-quinazolin-4-one] | < 300 | 300 to 3000 | < 300 | 
CC(C)(O)c1ccc(-c2nc3c(F)cccc3c(=O)[nH]2)cc1 [Compound A3, 8-fluoro-2-[4-(1-hydroxy-1-methyl-ethyl)-phenyl]-3H-quinazolin-4-one] | < 300 | 300 to 3000 | < 300 | 
CC(C)(O)c1ccc(-c2nc3cccc(F)c3c(=O)[nH]2)cc1 [Compound A4, 5-fluoro-2-[4-(1-hydroxy-1-methyl-ethyl)-phenyl]-3H-quinazolin-4-one] | < 300 | 300 to 3000 | < 300 | 
CC(C)(O)c1ccc(-c2nc3ccc(Cl)cc3c(=O)[nH]2)cc1 [Compound A5, 6-chloro-2-[4-(1-hydroxy-1-methyl-ethyl)-phenyl]-3H-quinazolin-4-one] | < 300 |  | < 300 | 
CC(C)(O)c1ccc(-c2nc3c(Cl)cccc3c(=O)[nH]2)cc1 [Compound A6, 8-chloro-2-[4-(1-hydroxy-1-methyl-ethyl)-phenyl]-3H-quinazolin-4-one] | < 300 | 300 to 3000 | < 300 | 
CC(C)(OCCO)c1ccc(-c2nc3ccc(F)cc3c(=O)[nH]2)cc1 [Compound A7, 6-fluoro-2-{4-[1-(2-hydroxy-ethoxy)-1-methyl-ethyl]-phenyl}-3H-quinazolin-4-one] | < 300 | 300 to 3000 | < 300 | 
COCCOC(C)(C)c1ccc(-c2nc3ccc(F)cc3c(=O)[nH]2)cc1 [Compound A8, 6-fluoro-2-{4-[1-(2-methoxy-ethoxy)-1-methyl-ethyl]-phenyl}-3H-quinazolin-4-one] | 300 to 3000 | 3000 to 50000 | < 300 | 
CC(C)(C)c1ccc(-c2nc3ccc(F)cc3c(=O)[nH]2)cc1 [Compound A9, 2-(4-tert-butyl-phenyl)-6-fluoro-3H-quinazolin-4-one] | < 300 | 3000 to 50000 | < 300 | 
CN1CCN(c2ccc(-c3nc4ccc(F)cc4c(=O)[nH]3)cc2)CC1 [Compound A10, 6-fluoro-2-[4-(4-methyl-piperazin-1-yl)-phenyl]-3H-quinazolin-4-one] | < 300 | 300 to 3000 | < 300 | 
CC(C)(O)c1ccc(-c2nc3c(F)cc(F)cc3c(=O)[nH]2)cc1 [Compound A11, 6,8-difluoro-2-[4-(1-hydroxy-1-methyl-ethyl)phenyl]-3H-quinazolin-4-one] |  | 300 to 3000 |  | 
CC(C)(O)c1ccc(-c2nc3ccc(F)c(F)c3c(=O)[nH]2)cc1 [Compound A12, 5,6-difluoro-2-[4-(1-hydroxy-1-methyl-ethyl)phenyl]-3H-quinazolin-4-one] | < 300 | 300 to 3000 | < 300 | 
CC(C)(O)c1ccc(-c2nc3ccc(F)cc3c(=O)[nH]2)nc1 [Compound A13, 6-fluoro-2-[5-(1-hydroxy-1-methyl-ethyl)-2-pyridyl]-3H-quinazolin-4-one] | 300 to 3000 |  |  | 
Cc1cc(F)cc2c(=O)[nH]c(-c3ccc(C(C)(C)OCCO)cc3)nc12 [Compound A21, 6-fluoro-2-{4-[1-(2-hydroxy-ethoxy)-1-methyl-ethyl]-phenyl}-8-methyl-3H-quinazolin-4-one] | 300 to 3000 | 300 to 3000 | < 300 | 
CC(C)(O)c1ccc(-c2nc3cccc(Cl)c3c(=O)[nH]2)cc1 [Compound A23, 5-chloro-2-[4-(1-hydroxy-1-methyl-ethyl)-phenyl]-3H-quinazolin-4-one] | 300 to 3000 |  | < 300 | 
Cc1cccc2c(=O)[nH]c(-c3ccc(C(C)(C)O)cc3)nc12 [Compound A24, 2-[4-(1-hydroxy-1-methyl-ethyl)-phenyl]-8-methyl-3H-quinazolin-4-one] | < 300 | < 300 | < 300 | 
Cc1cc(F)cc2c(=O)[nH]c(-c3ccc(C(C)(C)O)cc3)nc12 [Compound A25, 6-fluoro-2-[4-(1-hydroxy-1-methyl-ethyl)-phenyl]-8-methyl-3H-quinazolin-4-one] | < 300 | < 300 | < 300 | 
CC(C)(O)c1ccc(-c2nc3c(F)ccc(F)c3c(=O)[nH]2)cc1 [Compound A27, 5,8-difluoro-2-[4-(1-hydroxy-1-methyl-ethyl)-phenyl]-3H-quinazolin-4-one] | < 300 |  |  | 
O=c1[nH]c(-c2ccc(C3CCNCC3)cc2)nc2c(F)cc(F)cc12 [Compound A34, 6,8-difluoro-2-(4-piperidin-4-yl-phenyl)-3H-quinazolin-4-one hydrochloride] |  |  |  | < 300
